In PubChem BioAssay AID651773 (Broad Institute, 2012):
“And” between values parts separate entries of the source, which are not always exact repeats. Equal values may be shown once. Records with an inconclusive call do not appear.

test system: SK-MEL-5 MITF mRNA qPCR, delta-delta-Ct, overnight; test: inhibitors of MITF mRNA expression, dose response, cell-based, RT-qPCR, SK-MEL-5, dry powder (AID 651773)

Q: Which AC40 does the source give for `O=C1C(Nc2ccc(F)cc2)=C(N2CCCCC2)C(=O)c2ccccc21` here?
A: The AC40 was 6.7 µM.

Q: Which AC40 does the source give for `C=CCNC1=C(Cl)C(=O)c2ccccc2C1=O` here?
A: Its AC40 is 0.276 µM.

Q: How did the AC40 turn out when `COC1=C(Nc2ccccc2)C(=O)c2ccccc2C1=O` was run?
A: The AC40 was 0.386 µM.

Q: For `CC(C)N1CCN(C2=C(Nc3ccc(F)cc3)C(=O)c3ccccc3C2=O)CC1`, which AC40 is on record?
A: Its AC40 is 5.51 µM.

Q: For `O=C1C=C(NS(=O)(=O)c2ccccc2)C(=O)c2ccccc21`, which AC40 is on record?
A: The AC40 was 0.196 µM.

Q: Which AC40 does the source give for `O=C1C(Nc2cccc(Cl)c2)=C(N2CCCC2)C(=O)c2ccccc21` here?
A: The AC40 was 10.2 µM.

Q: Which AC40 does the source give for `O=C1C(Nc2ccccc2)=C(c2ccccc2)C(=O)c2ccccc21` here?
A: The AC40 was 5.04 µM.

Q: `O=C1C=C(Nc2ccccc2)C(=O)c2ccccc21` was tested. Which AC40 did it give?
A: The AC40 was 0.175 µM and 0.189 µM.

Q: With `O=C1C=C(NS(=O)(=O)c2ccc(Br)cc2)C(=O)c2ccccc21` as the molecule, how does the AC40 read?
A: Its AC40 is 0.631 µM.

Q: `NC1=C(NC(=O)c2ccccc2)C(=O)c2ccccc2C1=O` was tested. Which AC40 did it give?
A: Its AC40 is 0.357 µM.

Q: `NS(=O)(=O)c1ccc(NC2=CC(=O)c3ccccc3C2=O)cc1` was tested. Which AC40 did it give?
A: The AC40 was 0.115 µM.

Q: Which AC40 does the source give for `COC1=C(NS(=O)(=O)c2ccc(Br)cc2)C(=O)c2ccccc2C1=O` here?
A: The AC40 was 6.51 µM.

Q: With `CN1CCN(C2=C(NS(=O)(=O)c3ccc(Br)s3)C(=O)c3ccccc3C2=O)CC1` as the molecule, how does the AC40 read?
A: The AC40 was 1.33 µM.

Q: How did the AC40 turn out when `O=C1C(Nc2ccc(Br)cc2)=C(N2CCCCC2)C(=O)c2ccccc21` was run?
A: Its AC40 is 9.49 µM.

Q: For `NC1=C(NS(=O)(=O)c2ccccc2)C(=O)c2ccccc2C1=O`, which AC40 is on record?
A: Its AC40 is 2.76 µM.

Q: Which AC40 does the source give for `CC(C)N1CCN(C2=C(Nc3ccc(F)cc3F)C(=O)c3ccccc3C2=O)CC1` here?
A: Its AC40 is 1.59 µM.

Q: How did the AC40 turn out when `NC1=CC(=O)c2ccccc2C1=O` was run?
A: Its AC40 is 0.372 µM.

Q: With `CCN1CCN(C2=C(NS(=O)(=O)c3ccc(Br)cc3)C(=O)c3ccccc3C2=O)CC1` as the molecule, how does the AC40 read?
A: The AC40 was 3.65 µM.

Q: Which AC40 does the source give for `NC1=C(NS(=O)(=O)c2cccs2)C(=O)c2ccccc2C1=O` here?
A: The AC40 was 1.55 µM.

Q: Which AC40 does the source give for `O=C1C=C(Nc2ccc([N+](=O)[O-])c(C(F)(F)F)c2)C(=O)c2ccccc21` here?
A: Its AC40 is 0.0868 µM.

Q: Which AC40 does the source give for `NC1=C(NS(=O)(=O)c2ccc(Br)cc2)C(=O)c2ccccc2C1=O` here?
A: The AC40 was 4.92 µM.

Q: For `COC1=C(NS(=O)(=O)c2cccs2)C(=O)c2ccccc2C1=O`, which AC40 is on record?
A: The AC40 was 7.8 µM.

Q: `O=C(NC1=C(Cl)C(=O)c2ccccc2C1=O)c1ccccc1` was tested. Which AC40 did it give?
A: The AC40 was 0.179 µM.

Q: For `COC1=C(NS(=O)(=O)c2ccccc2)C(=O)c2ccccc2C1=O`, which AC40 is on record?
A: The AC40 was 1.84 µM.

Q: With `O=C1C=C(NS(=O)(=O)c2cccs2)C(=O)c2ccccc21` as the molecule, how does the AC40 read?
A: Its AC40 is 0.542 µM.

Q: How did the AC40 turn out when `O=C1C(Nc2ccc(Cl)cc2)=C(N2CCCC2)C(=O)c2ccccc21` was run?
A: Its AC40 is 9.48 µM.

Q: With `O=C1C(NS(=O)(=O)c2cccs2)=C(c2ccccc2)C(=O)c2ccccc21` as the molecule, how does the AC40 read?
A: The AC40 was 4.94 µM.

Q: `Cc1ccc(NC2=CC(=O)c3ccccc3C2=O)cc1` was tested. Which AC40 did it give?
A: The AC40 was 1.65 µM.

Q: For `CN1CCN(C2=C(Nc3ccc(F)cc3F)C(=O)c3ccccc3C2=O)CC1`, which AC40 is on record?
A: The AC40 was 1.82 µM.

Q: For `CCN1CCN(C2=C(Nc3ccc(F)cc3F)C(=O)c3ccccc3C2=O)CC1`, which AC40 is on record?
A: The AC40 was 2.28 µM.

Q: For `CCN1CCN(C2=C(NC(=O)c3ccccc3)C(=O)c3ccccc3C2=O)CC1`, which AC40 is on record?
A: Its AC40 is 1.28 µM.
